Source: publication PMC7044277 (Nature Communications, 2020)
Where “and” joins values, the source holds several entries; their conditions need not be identical. Identical values can stand only once.

Target: T1, 320 non-olfactory GPCRs (Homo sapiens, UniProt Q9UKP6)
T1 construct: expressed in transfected cells; host or cells: HTLA cells
Type: cell-based
Set-up: GPCRome screening signal at PTGIR / GPCRome screening signal at PTH1R / GPCRome screening signal at PTH2R / GPCRome screening signal at QRFP / GPCRome screening signal at RXFP2 / GPCRome screening signal at RXFP3 / GPCRome screening signal at RXFP4 / GPCRome screening signal at S1PR2 / GPCRome screening signal at S1PR3 / GPCRome screening signal at S1PR4 / GPCRome screening signal at S1PR5 / GPCRome screening signal at SCTR / GPCRome screening signal at SSTR2 / GPCRome screening signal at SSSTR / GPCRome screening signal at SSTR4 / GPCRome screening signal at SSTR5 / GPCRome screening signal at SUCNR1 / GPCRome screening signal at TA1 / GPCRome screening signal at TAAR2 / GPCRome screening signal at TAAR5 / GPCRome screening signal at TAAR6 / GPCRome screening signal at TAAR8 / GPCRome screening signal at TACR1 / GPCRome screening signal at TACR2 / GPCRome screening signal at TACR3 / GPCRome screening signal at TBXA2R / GPCRome screening signal at TSHR / GPCRome screening signal at UTS2R / GPCRome screening signal at VIPR2 / GPCRome screening signal at GPR68 no V2 Tail / GPCRome screening signal at GRM2 / GPCRome screening signal at GRM3: reference not given here
Details: receptor UTS2R; Fig_5f, single replicate values

T1 sequence (Q9UKP6 whole entry): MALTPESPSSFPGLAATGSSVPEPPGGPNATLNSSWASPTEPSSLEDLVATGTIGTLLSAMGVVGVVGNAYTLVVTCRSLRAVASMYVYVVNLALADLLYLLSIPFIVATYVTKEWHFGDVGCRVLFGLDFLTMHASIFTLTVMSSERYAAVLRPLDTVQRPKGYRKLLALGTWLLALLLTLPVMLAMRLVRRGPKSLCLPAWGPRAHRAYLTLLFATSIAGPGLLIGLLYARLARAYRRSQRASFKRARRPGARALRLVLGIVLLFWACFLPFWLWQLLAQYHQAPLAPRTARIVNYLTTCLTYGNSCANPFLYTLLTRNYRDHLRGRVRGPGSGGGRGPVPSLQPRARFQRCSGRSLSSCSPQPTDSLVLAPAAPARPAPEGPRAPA

GPCRome screening signal at UTS2R: 1.327 and 1.1644 and 2.664 and 0.5292
SMILES: CCOc1ccccc1CCC(C)NCC1(O)CCCCC1.Cl (racemic) [Fig_5f]
